Laboratory results published in article PMC7294809, “Discovery of an Allosteric Binding Site in Kinetoplastid Methionyl-tRNA Synthetase” (ACS Infectious Diseases, 2020).
Values after ≈ are worked out from the molar mass of the structure shown. Marks after values point to notes of the source that are not given here.

B1: TcMetRS (Trypanosoma cruzi strain CL Brener) (protein)
chain: MSLKLFSEKANTQALKALLCCHHVKRPVELTLSGAYTSPVLHHPALKQPIFSANEMVRLILHDKWRDDSAGGSGGKKTGCYDGHWASVSLEEEAWLEWEATTFTCAVHPLYTQRRVTPEAAGAFEYLDNKIHENDCRGPCLAPVGEKGTSTKSPSFLVDCIIWCAVLPALCEGGLLGEKEREKLPHLLKWFESFQSAREAHIAGAVESLAVQEFADFLRAPRVYKLSPKISKVFFITTPIYYVNAAPHIGHVYSTLIVDVIGRYHTMKGERVFAMSGTDEHGQKVAEAARQKGMNPYDFTCQVSREFIDCFEQMGYHMDYFIRTTNESHKKVVHELWSKLEAKGDIYLGRYEGWYSVSDESFLTAQNVTDGVDKDGKPCKVSLESGHVVTWLAEDNYMFRLSAFRERLLEWYNNNPGCIVPEFRRREVIRTVEKGLNDLSVSRTREAVQDWAIPVPGNPNHCIYVWLDALSNYYTASRLRLGKSGEELELVEDHRVLERFPADIHVIGKDILKFHAIYWPAFLISAGLPLPKTIVAHGWWTKDRKKISKSLGNVFDPVEKAREFGFDALKYFLLRETGFSDDGDYSDRNMISRLNGELADTLGNLVMRCTSAKINVHRVWPTPDAYNAKDEALIQLIKDLPGVVDHFFLIPDVQKALAAVFDLLRAINSYVTENAPWRLVKTDPDRLRTVLYITMEGTRLATLMLSPVLSQKAPVIFDMLGVPEANRVGVENFGFGVVPSGTSIGDAVEGKVLFPKISLDKAQSA

How the values were obtained:
[1] = biological target: T1, TcMetRS (Trypanosoma cruzi, UniProt Q4D6H2); experiment: TcMetRS BIOMOL Green biochemical assay, 10-point dose response
[2] = CHI LogD measurement; type: physicochemical; settings: chromatographic hydrophobicity index
Procedure: CHI LogD measurements were performed as described elsewhere.[29] cLogP measurements were calculated using StarDrop (Optibrium).

[3] = biological target: T2, LdMetRS (Leishmania donovani, UniProt A0A3Q8IBX2); experiment: LdMetRS mode of inhibition studies; type: biochemical; settings: for Ki / h (inhibitor Hill slope) / β (fraction of activity remaining) / Vmax / n (substrate Hill slope) / Ks: LdMetRS; for Ki: fit to eq 7, ± SE of fit; for h (inhibitor Hill slope) / β (fraction of activity remaining) / Vmax / n (substrate Hill slope) / Ks / mode of inhibition, LdMetRS: eq 7; for Vmax: global fit parameter; for n (substrate Hill slope) / Ks: global fit; for Ks: substrate dissociation constant; for mode of inhibition, LdMetRS: best fit by F-test
Text: Subsequent full mode of inhibition studies with compounds from the MetRS02 series were more challenging due to the partial inhibition profiles of some compounds resulting in poor global fits to the standard competitive, uncompetitive, and noncompetitive inhibition models (eqs 3, 4, and 5, respectively). In addition, during the enzymatic characterization of methionine binding to LdMetRS, a Hill slope of <1 was obtained (and was hypothesized to be due to conformational selection).[6] This low Hill slope is also not factored into the standard inhibition models described (eqs 3–5). New models with additional parameters to account for the partial inhibition and low methionine Hill slope were therefore required (eqs 6 and 7). Using these modified equations, the mode of inhibition of compound 27 was carried out by testing LdMetRS enzyme activity under varying substrate concentrations at various inhibitor concentrations (Figure 5). The cooperative, noncompetitive, partial inhibition model (eq 7) was confirmed as the best fit (using F-test analyses), with a noncompetitive mode of inhibition consistent with binding in an allosteric binding pocket. The returned fit parameters are shown in Table 4 and are presented with the standard error (SE) of the fit to eq 7.
(§1) Using GraFit v6.0 (Erithacus Software), each data set was globally fitted to standard competitive, uncompetitive, and noncompetitive inhibition models (eqs 3–5).
(§2) Equation 5 (noncompetitive inhibition model): [drawing 5] 5 On the basis of poor data fits to the above models, partial inhibition and cooperativity parameters were introduced into the uncompetitive and noncompetitive models as previously described by Skovpen et al.[30],[31] Mode of inhibition data were globally fitted to these modified equations (eqs 6 and 7).
(§3) Equation 7 (cooperative, noncompetitive, partial inhibition model): [drawing 7] 7 v is the velocity, Vmax is the maximum velocity, [S] is the substrate concentration, [I] is the inhibitor concentration, Ki is the inhibitor constant, Ks is the substrate dissociation constant, n is the substrate Hill slope, h is the inhibitor Hill slope, and β is the proportionality constant (fraction of activity remaining when the enzyme is fully saturated with inhibitor).
(§4) If more than one model appeared possible, then data were fitted to both and examined for significance using the F-test function in GraFit.

[4] = biological target: T1, TcMetRS; experiment: TcMetRS mode of inhibition studies; type: biochemical; settings: for Ki / h (inhibitor Hill slope) / β (fraction of activity remaining) / Vmax / n (substrate Hill slope) / Ks: TcMetRS; for Ki: fit to eq 7, ± SE of fit; for Vmax: global fit parameter; for n (substrate Hill slope) / Ks: global fit; for Ks: substrate dissociation constant
Text: It was therefore feasible to perform TcMetRS mode inhibition studies with this compound. These studies, carried out as previously described for LdMetRS, confirm a best fit to the same partial, cooperative, noncompetitive inhibition model (eq 7; Supporting Information Figure 6 and Table 4).
as §1, §2, §3, §4

[5] = Aqueous solubility, filtration-based method; type: physicochemical; settings: aqueous buffer, kinetic from dmso stock; phosphate-buffered saline pH 7.4, 24 h, 25 °C
Procedure: Solubility was assessed using a filtration-based method. Test compounds were dissolved in DMSO to give 10 mM solutions. Five microliters of the 10 mM solution was added to 195 μL of phosphate-buffered saline at pH 7.4 and mixed for 24 h (rotary mixing, 900 rpm, 25 °C) excluding light. After mixing, the samples were filtered to remove any undissolved material using a Millipore Multiscreen HTS filter. The filtrate was analyzed for dissolved drug compounds using UHPLC.

[6] = biological target: T2, LdMetRS; experiment: LdMetRS BIOMOL Green biochemical assay, 10-point dose response; settings: for Emax: read-out: LdMetRS Maximum % Inhibition Plateau
[7] = biological target: T2, LdMetRS; settings: read-out: LdMetRS Km app; cited from earlier work
[8] = biological target: T1, TcMetRS; experiment: TcMetRS kinetic parameter determinations (Km app); type: biochemical
Procedure: (§5) The activity of the TcMetRS enzyme was determined by monitoring levels of pyrophosphate released during the first step of the enzymatic reaction. The pyrophosphate formed was converted to two inorganic phosphate molecules using a pyrophosphatase enzyme, and levels of the resulting phosphate molecules were measured using the BIOMOL Green reagent (Enzo Life Sciences).
(§6) TcMetRS assays were carried out using 384-well, clear, flat-bottomed plates (Greiner) at room temperature (∼23 °C) in 50 μL reaction volumes of assay buffer (30 mM Tris, pH 8.0, 140 mM NaCl, 30 mM KCl, 40 mM MgCl2, 0.01% (v/v) Brij-35, 1 mM DTT) plus 1 U/mL pyrophosphatase and varying concentrations of enzyme and substrates. Enzyme linearity was assessed in a 90 min end-point assay with varying TcMetRS concentrations (0–320 nM), 50 μM L-methionine, and 100 μM ATP. Reactions were stopped with the addition of 50 μL of BIOMOL Green reagent, with the signal allowed to develop for 30 min before the absorbance of each well was read at 650 nm (A650) using a PheraStar plate reader (BMG).
(§7) Apparent Michaelis constants (Km^app) for the L-methionine and ATP substrates were determined in end-point assays using the above buffer conditions and 80 nM recombinant TcMetRS. […] To determine the ATP Km^app, various ATP concentrations were tested in the presence of a fixed, saturating concentration of L-methionine (3 mM). […]

[9] = substrate: CSCC[C@H](N)C(=O)O; experiment: TcMetRS kinetic parameter determinations (Km app); type: biochemical, Trypanosoma cruzi; settings: other: saturating 350 μM ATP; N = 3; pH 8.0; 23.0 °C
Procedure: as §5, §6, §7

[10] = LdMetRS pIC50, 50 μM methionine, 100 μM ATP, 50 nM LdMetRS, pIC50 = −log IC50 (M)

T2 sequence (A0A3Q8IBX2 entry or part of it): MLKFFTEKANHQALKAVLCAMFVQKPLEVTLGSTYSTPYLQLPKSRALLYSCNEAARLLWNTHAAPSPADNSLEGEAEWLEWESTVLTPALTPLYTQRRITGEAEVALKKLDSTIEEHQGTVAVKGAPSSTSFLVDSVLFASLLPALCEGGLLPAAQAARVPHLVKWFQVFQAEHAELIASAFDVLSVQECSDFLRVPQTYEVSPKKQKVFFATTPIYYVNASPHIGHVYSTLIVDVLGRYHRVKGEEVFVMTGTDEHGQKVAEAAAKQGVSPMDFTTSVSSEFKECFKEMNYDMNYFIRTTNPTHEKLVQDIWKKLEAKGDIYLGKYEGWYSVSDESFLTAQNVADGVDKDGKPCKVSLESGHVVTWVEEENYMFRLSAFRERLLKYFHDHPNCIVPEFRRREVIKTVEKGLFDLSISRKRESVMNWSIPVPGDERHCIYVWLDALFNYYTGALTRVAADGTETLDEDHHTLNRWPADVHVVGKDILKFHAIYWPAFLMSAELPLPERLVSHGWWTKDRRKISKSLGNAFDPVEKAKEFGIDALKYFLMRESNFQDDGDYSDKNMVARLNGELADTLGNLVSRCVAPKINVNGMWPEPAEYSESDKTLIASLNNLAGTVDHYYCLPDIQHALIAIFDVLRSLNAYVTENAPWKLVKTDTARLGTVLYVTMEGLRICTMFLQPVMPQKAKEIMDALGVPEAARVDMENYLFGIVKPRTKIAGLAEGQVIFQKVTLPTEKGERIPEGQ

| Molecule | IC50 [1] [µM] | chromatographic logD [2] | Ki ([3]; varied substrate ATP) [µM] | Ki ([3]; varied substrate methionine) [µM] | h (inhibitor Hill slope) ([3]; substrate ATP) | β (fraction of activity remaining) ([3]; substrate ATP) | Vmax ([3]; substrate ATP) [μM Piformed/min] | n (substrate Hill slope) ([3]; substrate ATP) | Ks ([3]; substrate ATP) [µM] | h (inhibitor Hill slope) ([3]; substrate methionine) | β (fraction of activity remaining) ([3]; substrate methionine) | Vmax ([3]; substrate methionine) [μM Piformed/min] | n (substrate Hill slope) ([3]; substrate methionine) | Ks ([3]; substrate methionine) [µM] | mode of inhibition, LdMetRS [3] | solubility at 24 h [5] [µM] | IC50 [6, 10] [M] | Emax [6] [%] | Km [7] [µM] | further results |
| --- | --- | --- | --- | --- | --- | --- | --- | --- | --- | --- | --- | --- | --- | --- | --- | --- | --- | --- | --- | --- |
| CN(C)c1nc(Nc2ccc(F)c(F)c2)nc2c1cnn2C [Compound 19] | > 100 | 2.88 | 1.21 ± 0.06 | 1.22 ± 0.06 | 1.75 ± 0.12 | 0.55 ± 0.01 | 0.292 ± 0.004 | 1.03 ± 0.03 ^b | 21.0 ± 0.74 | 1.65 ± 0.11 | 0.57 ± 0.01 | 0.359 ± 0.009 | 0.53 ± 0.02 | 313 ± 35 | noncompetitive | 4.8 (≈ 1.46 µg/mL) | 1e-06 | 48.9 | – | Ki ([4]; varied substrate ATP): inactive; Ki ([4]; varied substrate methionine): inactive |
| CSCC[C@H](N)C(=O)O [methionine] | – | – | – | – | – | – | – | – | – | – | – | – | – | – | – | – | – | – | 173 | – |
| Nc1ncnc2c1ncn2[C@@H]1O[C@H](COP(=O)(O)OP(=O)(O)OP(=O)(O)O)[C@@H](O)[C@H]1O [ATP] | – | – | – | – | – | – | – | – | – | – | – | – | – | – | – | – | – | – | 37 | substrate inhibition constant ([8]; ATP, 3 mM methionine): 2080 µM; Km ([8]; saturating 3 mM methionine, N = 3, read-out: TcMetRS apparent Michaelis constant (Km app) for ATP): 63 µM |
| COC(=O)CNc1nc(Nc2ccc(F)c(F)c2)nc2c1cnn2C [Compound 27] | > 100 | 2.17 | 1.58 ± 0.04 | 2.06 ± 0.04 | 1.10 ± 0.02 | 0.027 ± 0.005 | 0.324 ± 0.004 | 1.07 ± 0.02 ^b | 21.1 ± 0.6 | 1.05 ± 0.02 | 0.060 ± 0.005 | 0.388 ± 0.009 | 0.50 ± 0.01 | 327 ± 35 | noncompetitive | 5.5 (≈ 1.92 µg/mL) | 1.26e-06 | 92.9 | – | Emax ([1]; read-out: TcMetRS Maximum % Inhibition): 44.2 ± 6.5%; fold difference in Ki, TcMetRS versus LdMetRS ([4]; Ki from mode of inhibition studies, Table 4): 5–7 fold; Ki ([4]; Ki, varied substrate ATP): 11.3 ± 1.2 µM; Ki ([4]; Ki, varied substrate methionine): 10.8 ± 0.7 µM; h (inhibitor Hill slope) ([4]; substrate ATP, eq 7): 1.27 ± 0.14; β (fraction of activity remaining) ([4]; substrate ATP, eq 7): 0.48 ± 0.02; Vmax ([4]; substrate ATP, eq 7): 0.287 ± 0.006 μM Piformed/min; n (substrate Hill slope) ([4]; substrate ATP, eq 7): 1.07 ± 0.03 ^b; Ks ([4]; substrate ATP, eq 7): 40.5 ± 2.0 µM; h (inhibitor Hill slope) ([4]; substrate methionine, eq 7): 1.48 ± 0.11; β (fraction of activity remaining) ([4]; substrate methionine, eq 7): 0.65 ± 0.01; Vmax ([4]; substrate methionine, eq 7): 0.429 ± 0.016 μM Piformed/min; n (substrate Hill slope) ([4]; substrate methionine, eq 7): 0.42 ± 0.01; Ks ([4]; substrate methionine, eq 7): 1340 ± 237 µM; mode of inhibition, TcMetRS ([4]; best fit, eq 7): noncompetitive; IC50 ([6]; LdMetRS pIC50, 50 µM ATP and 50 µM methionine): 1.41e-06 M; IC50 ([6]; LdMetRS pIC50, both substrate concentrations increased to 500 µM): 1.41e-06 M; IC50 shift on increasing substrate concentrations ([6]; methionine and ATP increased from 50 μM each to 500 μM, preliminary data): no IC50 shifts |
| B1 | – | – | – | – | – | – | – | – | – | – | – | – | – | – | – | – | – | – | – | Km [9]: 212 µM |
